# According to US10981879B2, “Thioether triazolopyridine and triazolopyrimidine inhibitors of myeloperoxidase” (BRISTOL-MYERS SQUIBB COMPANY, priority 2014, dated 2021):
# Biological target: myeloperoxidase (MPO) (Homo sapiens (Human), UniProt P05164)
# Assay: MPO chlorination assay (APF)
# Type: biochemical
# Conditions: MPO chlorination assay, ranges given; read-out: MPO chlorination assay IC50
# Method: MPO chlorination activity was measured in 100 mM KPi (pH 7.4) by utilizing the non-fluorescent reagent Aminophenyl fluorescein (APF, Invitrogen catalog #A36003). APF is cleaved by (—OCl) to yield the fluorescent compound fluorescein. Reactions were carried out in 50 μL total volume by adding a 25 μL mixture of 200 pM myeloperoxidase and 120 mM NaCl to 100 nL inhibitor in 100% DMSO in a 384 well, non-binding surface clear bottom plate (CORNING® #3655). Enzyme, inhibitor, and chloride were preincubated for ten minutes at rt.
# After the ten minute preincubation, 25 μL of an APF mixture containing […], 120 mM NaCl and 10 μM H2O2 was added to the plate using the internal dispensing system of a Hammatsu FDSS 6000. Kinetic determinations were carried out immediately on the FDSS 6000 (3 minute kinetic read, 1 read every second, ex: 485 nm, em: 535 nm). IC50 values for inhibitors were calculated by taking the slope of the linear portion of the kinetic measurement (20 seconds to ˜80-120 secs). […]
# [formula] where A=minimal Y value (activity level of inhibited sample), B=maximal Y value (activity level of uninhibited sample), C=Log IC50, D=Hill Slope, x=concentration of inhibitor. EPX Bromination Assay
# Chain of myeloperoxidase (MPO) (P05164 49-745): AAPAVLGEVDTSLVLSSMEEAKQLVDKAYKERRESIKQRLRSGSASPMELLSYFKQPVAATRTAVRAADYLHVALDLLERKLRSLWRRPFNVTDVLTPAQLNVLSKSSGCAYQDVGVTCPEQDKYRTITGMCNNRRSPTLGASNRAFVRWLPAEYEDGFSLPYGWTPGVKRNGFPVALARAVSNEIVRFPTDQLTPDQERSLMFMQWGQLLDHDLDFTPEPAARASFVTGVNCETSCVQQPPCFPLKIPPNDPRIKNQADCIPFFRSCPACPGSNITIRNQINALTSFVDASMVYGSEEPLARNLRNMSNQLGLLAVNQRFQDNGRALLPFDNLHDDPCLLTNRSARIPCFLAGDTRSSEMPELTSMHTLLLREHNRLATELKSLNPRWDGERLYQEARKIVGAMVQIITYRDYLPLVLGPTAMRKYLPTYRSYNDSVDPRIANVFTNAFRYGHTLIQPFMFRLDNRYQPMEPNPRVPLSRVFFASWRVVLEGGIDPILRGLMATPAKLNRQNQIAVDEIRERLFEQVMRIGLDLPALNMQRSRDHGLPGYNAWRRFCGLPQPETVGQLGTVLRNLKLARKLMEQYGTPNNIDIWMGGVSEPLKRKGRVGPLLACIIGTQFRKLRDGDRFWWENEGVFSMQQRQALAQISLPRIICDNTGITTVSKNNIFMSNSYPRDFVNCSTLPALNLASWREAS
row,Compound,IC50 [nM]
1,"CCOC(=O)C(Sc1cc(N)nc2[nH]nnc12)c1ccccc1 (stereo not drawn) [Example 106, ethyl 2-((5-amino-3H-[1,2,3]triazolo[4,5-b]pyridin-7-yl)thio)-2-phenylacetate]",60 to 200
2,N#Cc1ccc(OC(F)F)cc1CSc1cc(N)nc2[nH]nnc12 [Example 109],≤ 60
3,"Cn1nc(C2CC2)c(Cl)c1CSc1cc(N)nc2[nH]nnc12 [Example 111, 7-(((4-chloro-3-cyclopropyl-1-methyl-1H-pyrazol-5-yl)methyl)thio)-3H-[1,2,3] triazolo[4,5-b]pyridin-5-amine]",60 to 200
4,"Cn1nc(-c2ccccc2)c(Cl)c1CSc1cc(N)nc2[nH]nnc12 [Example 112, 7-(((4-chloro-1-methyl-3-phenyl-1H-pyrazol-5-yl)methyl)thio)-3H-[1,2,3] triazolo[4,5-b]pyridin-5-amine]",≤ 60
5,"Nc1cc(SCc2cn(C3CCCCC3)nc2C(F)(F)F)c2nn[nH]c2n1 [Example 115, 7-(((1-cyclohexyl-3-(trifluoromethyl)-1H-pyrazol-4-yl)methyl)thio)-3H-[1,2,3]triazolo[4,5-b] pyridin-5-amine]",60 to 200
6,"N#Cc1cccc(Cl)c1CSc1cc(N)nc2[nH]nnc12 [Example 117, 2-(((5-amino-3H-[1,2,3]triazolo[4,5-b]pyridin-7-yl)thio)methyl)-3-chlorobenzonitrile]",≤ 60
7,"Nc1cc(SCc2cc(Cl)cc(S(N)(=O)=O)c2Cl)c2nn[nH]c2n1 [Example 118, 3-(((5-amino-3H-[1,2,3]triazolo[4,5-b]pyridin-7-yl)thio)methyl)-2,5-dichlorobenzenesulfonamide]",≤ 60
8,"Nc1cc(SCc2cccc3cccnc23)c2nn[nH]c2n1 [Example 125, 7-((quinolin-8-ylmethyl)thio)-3H-[1,2,3] triazolo[4,5-b]pyridin-5-amine]",≤ 60
9,"Nc1cc(SC(C(=O)NCc2ccccc2)c2ccccc2)c2nn[nH]c2n1 (stereo not drawn) [Example 127, 2-((5-Amino-3H-[1,2,3]triazolo[4,5-b]pyridin-7-yl)thio)-N-benzyl-2-phenylacetamide]",200 to 1000
10,"Nc1cc(SC(CNCc2ccccc2)c2ccccc2)c2nn[nH]c2n1 (stereo not drawn) [Example 128, 7-((2-(Benzylamino)-1-phenylethyl)thio)-3H-[1,2,3]triazolo[4,5-b]pyridin-5-amine]",60 to 200
11,"N#Cc1ccc(-c2ccncc2)c(CSc2cc(N)nc3[nH]nnc23)c1 [Example 130, 3-(((5-Amino-3H-[1,2,3]triazolo[4,5-b]pyridin-7-yl)thio)methyl)-4-(pyridin-4-yl)benzonitrile]",≤ 60
12,"N#Cc1ccc(CSc2cc(N)nc3[nH]nnc23)c(C2CC2)c1 [Example 133, 4-(((5-amino-3H-[1,2,3]triazolo[4,5-b]pyridin-7-yl)thio)methyl)-3-cyclopropylbenzonitrile]",≤ 60
13,"Nc1cc(SCc2cn(-c3ccccc3)nc2C2CC2)c2nn[nH]c2n1 [Example 134, 7-(((3-Cyclopropyl-1-phenyl-1H-pyrazol-4-yl)methyl)thio)-3H-[1,2,3]triazolo[4,5-b]pyridin-5-amine]",≤ 60
14,"Nc1cc(SCc2cn(-c3ccccn3)nc2C(F)(F)F)c2nn[nH]c2n1 [Example 135, 7-(((1-(pyridin-2-y1)-3-(trifluoromethyl)-1H-pyrazol-4-yl)methyl)thio)-3H-[1,2,3] triazolo[4,5-b]pyridin-5-amine]",≤ 60
15,Nc1cc(SCc2cn(-c3cccnc3)nc2C(F)(F)F)c2nn[nH]c2n1 [Example 136],≤ 60
16,Nc1cc(SCc2cn(-c3ccncc3)nc2C(F)(F)F)c2nn[nH]c2n1 [Example 137],≤ 60
17,"Nc1cc(SCc2cn(-c3ccccc3)nc2C(F)F)c2nn[nH]c2n1 [Example 138, 7-(((3-(difluoromethyl)-1-phenyl-1H-pyrazol-4-yl)methyl)thio)-3H-[1,2,3]triazolo[4,5-b] pyridin-5-amine]",≤ 60
18,"CN(C)c1cc(-n2cc(CSc3cc(N)nc4[nH]nnc34)c(C(F)(F)F)n2)ccn1 [Example 141, 7-(((1-(2-(dimethylamino)pyridin-4-yl)-3-(trifluoromethyl)-1H-pyrazol-4-yl)methyl)thio)-3H-[1,2,3]triazolo [4,5-b]pyridin-5-amine]",≤ 60
19,Nc1cc(SCc2cn(-c3ccncc3)nc2C(F)F)c2nn[nH]c2n1 [Example 142],≤ 60
20,Nc1cc(SCc2cn(-c3cnc(C(=O)N4CCC4)cn3)nc2C(F)F)c2nn[nH]c2n1 [Example 146],200 to 1000
21,"CN(C)Cc1cccc(-n2cc(CSc3cc(N)nc4[nH]nnc34)c(C(F)F)n2)c1 [Example 148, 7-(((3-(difluoromethyl)-1-(3-((dimethylamino)methyl)phenyl)-1H-pyrazol-4-yl)methyl)thio)-3H-[1,2,3]triazolo [4,5-b]pyridin-5-amine]",≤ 60
22,"CN(C)CCNC(=O)c1cccc(-n2cc(CSc3cc(N)nc4[nH]nnc34)c(C(F)F)n2)c1 [Example 149, 3-(4-(((5-amino-3H-[1,2,3]triazolo[4,5-b]pyridin-7-yl)thio)methyl)-3-(difluoromethyl)-1H-pyrazol-1-yl)-N-(2-(dimethylamino)ethyl) benzamide]",60 to 200
23,"CN(C)Cc1ccccc1-n1cc(CSc2cc(N)nc3[nH]nnc23)c(C(F)F)n1 [Example 150, 7-(((3-(difluoromethyl)-1-(2-((dimethylamino)methyl)phenyl)-1H-pyrazol-4-yl)methyl)thio)-3H-[1,2,3]triazolo [4,5-b]pyridin-5-amine]",≤ 60

# Continued, values first:
row,IC50 [nM],Compound
1,60 to 200,"Cn1nc(CSc2cc(N)nc3[nH]nnc23)cc1-c1ccccc1 [Example 103, 7-(((1-methyl-5-phenyl-1H-pyrazol-3-yl)methyl)thio)-3H-[1,2,3]triazolo[4,5-b] pyridin-5-amine]"
2,60 to 200,"Nc1cc(SCc2cccc3c2OC(F)(F)O3)c2nn[nH]c2n1 [Example 105, 7-(((2,2-difluorobenzo[d] [1,3]dioxol-4-yl)methyl)thio)-3H-[1,2,3]triazolo[4,5-b]pyridin-5-amine]"
3,60 to 200,"CC(Sc1cc(N)nc2[nH]nnc12)c1cccnc1 (stereo not drawn) [Example 107, 7-((1-(pyridin-3-yl)ethyl)thio)-3H-[1,2,3]triazolo[4,5-b]pyridin-5-amine]"
4,60 to 200,"N#Cc1ncccc1CSc1cc(N)nc2[nH]nnc12 [Example 108, 3-(((5-amino-3H-[1,2,3]triazolo[4,5-b]pyridin-7-yl)thio)methyl)picolinonitrile]"
5,60 to 200,"N#Cc1ccc(OC2CC2)cc1CSc1cc(N)nc2[nH]nnc12 [Example 110, 2-(((5-amino-3H-[1,2,3]triazolo[4,5-b]pyridin-7-yl)thio)methyl)-4-cyclopropoxybenzonitrile]"
6,60 to 200,"Nc1cc(SCc2cnn(-c3ccccc3)c2C(F)(F)F)c2nn[nH]c2n1 [Example 114, 7-(((1-phenyl-5-(trifluoromethyl)-1H-pyrazol-4-yl)methyl)thio)-3H-[1,2,3]triazolo[4,5-b] pyridin-5-amine]"
7,60 to 200,"Nc1cc(SCc2ccc(S(N)(=O)=O)cc2Cl)c2nn[nH]c2n1 [Example 119, 4-(((5-amino-3H-[1,2,3]triazolo[4,5-b]pyridin-7-yl)thio)methyl)-3-chlorobenzenesulfonamide]"
8,200 to 1000,"NC(=O)c1ccc(CSc2cc(N)nc3[nH]nnc23)c(F)c1 [Example 120, 4-(((5-amino-3H-[1,2,3]triazolo[4,5-b]pyridin-7-yl)thio)methyl)-3-fluorobenzamide]"
9,60 to 200,"N#Cc1ccc(F)c(CSc2cc(N)nc3[nH]nnc23)c1 [Example 123, 3-(((5-amino-3H-[1,2,3]triazolo[4,5-b]pyridin-7-yl)thio)methyl)-4-fluorobenzonitrile]"
10,200 to 1000,"N#Cc1ccc(CSc2cc(N)nc3[nH]nnc23)c(Cl)c1 [Example 124, 4-(((5-amino-3H-[1,2,3]triazolo[4,5-b]pyridin-7-yl)thio)methyl)-3-chlorobenzonitrile]"
11,200 to 1000,"N#Cc1cccc(-n2cccn2)c1CSc1cc(N)nc2[nH]nnc12 [Example 129, 2-(((5-Amino-3H-[1,2,3]triazolo[4,5-b]pyridin-7-yl)thio)methyl)-3-(1H-pyrazol-1-yl)benzonitrile]"
12,200 to 1000,"N#Cc1cccc(-n2ccnc2)c1CSc1cc(N)nc2[nH]nnc12 [Example 131, 2-(((5-amino-3H-[1,2,3]triazolo[4,5-b]pyridin-7-yl)thio)methyl)-3-(1H-imidazol-1-yl)benzonitrile]"
13,60 to 200,"N#Cc1ccc(-n2cccn2)c(CSc2cc(N)nc3[nH]nnc23)c1 [Example 132, 3-(((5-amino-3H-[1,2,3]triazolo[4,5-b]pyridin-7-yl)thio)methyl)-4-(1H-pyrazol-1-yl) benzonitrile]"
14,200 to 1000,"CN(C)c1cccc(-n2cc(CSc3cc(N)nc4[nH]nnc34)c(C(F)(F)F)n2)n1 [Example 140, 7-(((1-(6-(dimethylamino)pyridin-2-yl)-3-(trifluoromethyl)-1H-pyrazol-4-yl)methyl)thio)-3H-[1,2,3]triazolo [4,5-b]pyridin-5-amine]"
15,200 to 1000,Nc1cc(SCc2cn(-c3ccnnc3)nc2C(F)F)c2nn[nH]c2n1 [Example 143]
16,200 to 1000,"N#Cc1cn(-c2ccccc2)nc1CSc1cc(N)nc2[nH]nnc12 [Example 147, 3-(((5-amino-3H-[1,2,3]triazolo[4,5-b]pyridin-7-yl)thio)methyl)-1-phenyl-1H-pyrazol-4-carbonitrile]"
